Consider 27 compounds from ChEMBL document CHEMBL3352069, “Thieno[2,3-b]pyridines as negative allosteric modulators of metabotropic GluR5 receptors: hit-to-lead optimization” (Bioorg Med Chem Lett, 2014).

Assay [1] has as its target Metabotropic glutamate receptor 5 (Rattus norvegicus) (UniProt P31424). The experiment in a line: Displacement of [3H]-M-MPEP from mGluR5 in rat cerebrocortical membrane preparation at 1 uM. The format is cell membranes. (In general: Displacement assays read how much labelled ligand stays bound in the presence of the test substance.)
For assay [2], the target named is T1, Metabotropic glutamate receptor 5 (Rattus norvegicus, UniProt P31424). The experiment in a line: Displacement of [3H]-M-MPEP from mGluR5 in rat cerebrocortical membrane preparation. The format is cell membranes.
In assay [3] the target is T1, Metabotropic glutamate receptor 5. Description: Inhibition of mGluR5 in rat embryo neuronal culture assessed as calcium level by Fluo-4/AM dye based fluorometry. The class given is functional.
The test system of another assay is Rattus norvegicus. Description: Anxiolytic activity in ip dosed rat assessed as increase in number of shocks measured for 30 mins Vogel punished drinking model. The class given is functional, organism-based.

Sequence of Metabotropic glutamate receptor 5 (Rattus norvegicus) (P31424 21-1203 limits assumed): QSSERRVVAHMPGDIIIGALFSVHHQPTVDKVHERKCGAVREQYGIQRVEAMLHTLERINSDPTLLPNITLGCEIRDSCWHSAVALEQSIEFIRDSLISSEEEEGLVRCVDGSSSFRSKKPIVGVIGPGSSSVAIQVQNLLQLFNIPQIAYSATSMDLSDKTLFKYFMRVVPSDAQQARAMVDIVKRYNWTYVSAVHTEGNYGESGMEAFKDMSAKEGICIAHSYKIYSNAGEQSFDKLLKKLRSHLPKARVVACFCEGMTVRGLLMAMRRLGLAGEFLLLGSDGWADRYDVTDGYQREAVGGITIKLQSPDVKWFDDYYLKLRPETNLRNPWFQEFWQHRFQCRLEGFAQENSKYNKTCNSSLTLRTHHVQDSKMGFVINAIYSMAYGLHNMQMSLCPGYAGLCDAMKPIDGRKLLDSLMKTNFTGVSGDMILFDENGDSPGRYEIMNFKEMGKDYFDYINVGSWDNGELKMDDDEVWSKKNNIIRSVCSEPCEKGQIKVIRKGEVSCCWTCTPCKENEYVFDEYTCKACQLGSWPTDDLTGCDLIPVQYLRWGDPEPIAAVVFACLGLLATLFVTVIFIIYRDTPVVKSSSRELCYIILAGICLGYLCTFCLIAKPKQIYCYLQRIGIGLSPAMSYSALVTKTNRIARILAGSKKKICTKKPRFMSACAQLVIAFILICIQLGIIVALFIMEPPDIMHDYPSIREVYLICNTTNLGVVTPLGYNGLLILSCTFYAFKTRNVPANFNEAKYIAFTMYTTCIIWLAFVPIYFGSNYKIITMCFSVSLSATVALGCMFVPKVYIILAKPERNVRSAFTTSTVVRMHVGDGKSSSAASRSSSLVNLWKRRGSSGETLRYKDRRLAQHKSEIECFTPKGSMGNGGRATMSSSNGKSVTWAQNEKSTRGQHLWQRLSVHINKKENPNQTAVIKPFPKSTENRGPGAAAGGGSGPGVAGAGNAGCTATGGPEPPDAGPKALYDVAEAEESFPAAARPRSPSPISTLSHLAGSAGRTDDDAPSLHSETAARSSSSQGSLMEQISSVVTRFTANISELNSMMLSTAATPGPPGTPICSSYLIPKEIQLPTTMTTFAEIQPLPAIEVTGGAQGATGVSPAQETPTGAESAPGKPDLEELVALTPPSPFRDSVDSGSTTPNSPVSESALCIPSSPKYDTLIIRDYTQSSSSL
T1 sequence (P31424 whole entry): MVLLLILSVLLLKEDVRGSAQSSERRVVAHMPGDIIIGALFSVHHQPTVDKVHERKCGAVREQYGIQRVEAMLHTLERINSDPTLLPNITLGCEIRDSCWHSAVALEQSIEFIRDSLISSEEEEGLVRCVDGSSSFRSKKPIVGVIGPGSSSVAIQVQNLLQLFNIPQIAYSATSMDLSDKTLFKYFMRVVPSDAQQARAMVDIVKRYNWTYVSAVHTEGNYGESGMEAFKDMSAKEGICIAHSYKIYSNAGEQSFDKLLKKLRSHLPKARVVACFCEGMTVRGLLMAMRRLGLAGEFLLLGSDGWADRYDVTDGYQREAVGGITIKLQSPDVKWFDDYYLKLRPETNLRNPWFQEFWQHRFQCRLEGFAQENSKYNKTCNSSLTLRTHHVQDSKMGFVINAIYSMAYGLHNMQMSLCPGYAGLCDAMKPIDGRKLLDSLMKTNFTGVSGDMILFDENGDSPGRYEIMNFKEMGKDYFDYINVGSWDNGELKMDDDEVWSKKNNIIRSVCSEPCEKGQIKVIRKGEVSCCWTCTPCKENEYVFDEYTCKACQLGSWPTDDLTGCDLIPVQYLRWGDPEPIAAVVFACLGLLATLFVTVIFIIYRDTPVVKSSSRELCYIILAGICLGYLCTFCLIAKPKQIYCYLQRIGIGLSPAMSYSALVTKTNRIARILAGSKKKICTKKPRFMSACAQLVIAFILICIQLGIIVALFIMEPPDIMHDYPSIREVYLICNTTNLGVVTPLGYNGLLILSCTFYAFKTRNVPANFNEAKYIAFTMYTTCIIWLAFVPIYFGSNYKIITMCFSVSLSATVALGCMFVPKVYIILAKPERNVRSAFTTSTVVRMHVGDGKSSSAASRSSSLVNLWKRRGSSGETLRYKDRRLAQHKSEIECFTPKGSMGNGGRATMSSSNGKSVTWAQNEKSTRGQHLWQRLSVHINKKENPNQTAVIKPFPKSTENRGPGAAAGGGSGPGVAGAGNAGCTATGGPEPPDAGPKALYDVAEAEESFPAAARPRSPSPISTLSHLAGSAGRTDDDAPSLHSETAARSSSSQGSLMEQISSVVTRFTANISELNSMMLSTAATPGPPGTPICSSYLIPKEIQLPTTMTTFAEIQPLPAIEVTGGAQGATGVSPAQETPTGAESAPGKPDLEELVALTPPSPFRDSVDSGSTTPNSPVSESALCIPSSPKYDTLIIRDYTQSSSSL

`OC(CCc1ccc(F)cc1)c1sc2ncccc2c1-c1ccc(F)cc1` (stereo not given): the inhibition (commonly how much of the control response was suppressed) in assay [1] came to 3%.

On to `COc1ccc(CCC(=O)c2sc3ncccc3c2-c2ccccc2)cc1`, for which the Ki (usually the equilibrium dissociation constant of an inhibitor or competing ligand from its target) in assay [2] was found to be 2.5 µM. In addition, the IC50 (usually the point on the concentration scale where inhibition reaches its midpoint) in assay [3] worked out at 8 µM.

As to `Fc1ccc(CCCc2sc3ncccc3c2-c2ccc(F)cc2)cc1`, in assay [1], the inhibition is 0%.

For the compound `O=C(CCc1ccc(F)cc1)c1sc2ncccc2c1-c1ccc(F)cc1`, the Ki in assay [2] stood at 0.18 µM. The IC50 in assay [3] came to 1 µM.

Compound `CN(C(=O)c1sc2ncccc2c1-c1ccc(F)cc1)c1ccc(F)cc1` displayed an inhibition in assay [1] of 19%.

`Fc1ccc(-c2c(C3=NOC(c4ccc(F)cc4)C3)sc3ncccc23)cc1` (stereo not given) returned an inhibition in assay [1] of 52%.

Turning to `O=C(Cc1ccc(F)cc1)c1sc2ncccc2c1-c1ccc(Cl)cc1`, in assay [2], the affinity corresponds to a Ki of 0.083 µM. The IC50 in assay [3] is 0.35 µM.

On to `CN(Cc1ccc(F)cc1)C(=O)c1sc2ncccc2c1-c1ccc(Cl)cc1`, for which the inhibition in assay [1] worked out at 13%.

With `Fc1ccc(-c2nc(-c3sc4ncccc4c3-c3ccc(Cl)cc3)no2)cc1`, the inhibition in assay [1] worked out at 0%.

As to `O=C(Nc1ccc(F)cc1)c1sc2ncccc2c1-c1ccc(Cl)cc1`, the inhibition in assay [1] was found to be 0%.

`O=C(CCc1ccc(F)cc1)c1sc2ncccc2c1-c1ccccc1` returned a Ki in assay [2] of 0.343 µM. In assay [3], the IC50 stood at 2.1 µM.

For `O=C(CCc1ccc(F)cc1)c1[nH]c2ccccc2c1-c1ccc(F)cc1`, in assay [1], the inhibition turned out to be 4%.

On to `O=C(CCc1ccccc1)c1sccc1-c1ccc(F)cc1`, for which the inhibition in assay [1] was 0%.

In turn, `Fc1ccc(C/C=C/c2sc3ncccc3c2-c2ccc(F)cc2)cc1` came in with an inhibition in assay [1] of 12%.

The compound `O=C(CCc1ccccc1)c1sc2ncccc2c1-c1ccccc1` yielded a Ki in assay [2] of 0.73 µM. The IC50 in assay [3] was determined as 3.3 µM.

In assay [2], `O=C(Cc1ccc(F)cc1)c1sc2ncccc2c1-c1ccc(F)cc1` displayed a Ki of 0.14 µM.

Turning to `O=C(c1ccc(Cl)cc1)c1sc2ncccc2c1-c1ccc(F)cc1`, in assay [1], the inhibition stood at 30%.

Regarding `O=C(Oc1ccc(F)cc1)c1sc2ncccc2c1-c1ccc(Cl)cc1`, in assay [1], the inhibition is 15%.

`Fc1ccc(-c2nnc(-c3sc4ncccc4c3-c3ccc(Cl)cc3)o2)cc1` displayed an inhibition in assay [1] of 24%.

With `O=C(CCc1ccccc1)c1sccc1-c1ccccc1`, the inhibition in assay [1] is 0%.

`O=C(NCc1ccc(F)cc1)c1sc2ncccc2c1-c1ccc(F)cc1` came in with a Ki in assay [2] of 0.311 µM.

In the case of `O=S(=O)(c1ccc(Cl)cc1)c1sc2ncccc2c1-c1ccc(Cl)cc1`, affinity in assay [2] was put at a Ki of 0.0123 µM. Besides, the concentration for half-maximal inhibition (IC50) in assay [3] was 0.046 µM. Further, the Activity result in the assay with Rattus norvegicus was “Dose-dependent effect”.

With `CC(=O)c1sc2ncccc2c1-c1ccccc1`, the inhibition in assay [1] was 17%.

In assay [2], `O=C(OCc1ccc(F)cc1)c1sc2ncccc2c1-c1ccc(Cl)cc1` gave a Ki of 0.041 µM. Besides, in assay [3], the IC50 was 0.15 µM.

Consider `c1ccc(-c2csc3ncccc23)cc1`, for which the inhibition in assay [1] is 0%.

As for `O=C(CCc1ccc(F)cc1)c1sc2ccccc2c1-c1ccc(F)cc1`, the inhibition in assay [1] was determined as 8%.

With `O=C(CCc1cccc(F)c1)c1sc2ncccc2c1-c1ccc(F)cc1`, the Ki in assay [2] stood at 0.224 µM.
